Data set [1] is described as follows: Cytotoxicity against differentiated mouse 3T3-F442A cells assessed as depletion of mitochondrial DNA level at 10 uM by real-time PCR. The data set is classed as cell-based. For orientation: Quantitative PCR measures a nucleic acid by following its amplification.
Data set [2] can be described thus: Cytotoxicity against differentiated mouse 3T3-F442A cells assessed as depletion of mitochondrial DNA level at 1 uM by real-time PCR. It counts as cell-based.
Data set [3] can be described thus: Cytotoxicity against differentiated mouse 3T3-F442A cells assessed as effect on total deoxynucleotides content at 1 uM after 2 to 10 days. It counts as cell-based.
A short description of data set [4]: Cytotoxicity against differentiated mouse 3T3-F442A cells assessed as effect on total deoxynucleotides content at 10 uM after 2 to 10 days. It counts as cell-based.
Data set [5] in a line: Cytotoxicity against differentiated mouse 3T3-F442A cells assessed as increase in total deoxynucleotides content at 10 uM after 2 to 10 days. It counts as cell-based.
The nature of data set [6]: Increase in mitochondrial DNA level in differentiated mouse 3T3-F442A cells at 10 uM by real-time PCR. The data set is classed as ADME.
Data set [7] is described as follows: Increase in mitochondrial DNA level in differentiated mouse 3T3-F442A cells at 1 uM by real-time PCR. The data set is classed as ADME.
The nature of data set [8]: Cytotoxicity against differentiated mouse 3T3-F442A cells assessed as increase in TTP content after 10 days. It counts as cell-based. The following applies: 240 h.

For `Cc1cn([C@H]2C=C[C@@H](CO)O2)c(=O)[nH]c1=O` [STAVUDINE], the Activity entry in data set [1] is “Toxic”; in data set [2], “Non-toxic”; in data set [3], “Non-toxic”; in data set [4], “Non-toxic”; in data set [5], “Toxic”.
As to `Cc1cn([C@H]2C[C@H](N=[N+]=[N-])[C@@H](CO)O2)c(=O)[nH]c1=O` [ZIDOVUDINE], the Activity entry in data set [6] is reported as “Non-toxic”; in data set [7], “Non-toxic”; in data set [3], “Non-toxic”; in data set [4] it was “Non-toxic”; in data set [8] it was 35%.

The record behind these values is ChEMBL document CHEMBL1687723, “Effects of zidovudine and stavudine on mitochondrial DNA of differentiating 3T3-F442a cells are not associated with imbalanced deoxynucleotide pools” (Antimicrob Agents Chemother, 2009).
